Assays:
duck salad = test: Test B flood test duck salad; assay type: in vivo, Heteranthera limosa; conditions: Pre-emergence
How it was run: (§1)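 Read-out is a visual response score from 0 (no effect) to 10 (complete control), assigned by comparison with untreated controls. Treatment was applied at the 2-leaf stage, and plants stayed in the greenhouse for twelve to sixteen days before scoring.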

bamyardgrass = test: Test B flood test barnyardgrass; assay type: in vivo, Echinochloa crus-galli; conditions: Pre-emergence
How it was run: as §1

sugar beet = test: Test B pre/postemergence sugar beet; assay type: in vivo, Beta vulgaris
How it was run: (§2)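 Herbicidal effect was estimated by eye on a ten-point control scale after plants spent twelve to sixteen days in a greenhouse following soil or foliar treatment. Foliar sprays targeted plants at one to four leaves; all doses were formulated in a non-phytotoxic solvent with surfactant.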

velvetleaf = test: Test B pre/postemergence velvetleaf; assay type: in vivo, Abutilon theophrasti
How it was run: as §2

wheat = test: Test B pre/postemergence wheat; assay type: in vivo, Triticum aestivum
How it was run: as §2

crabgrass = test: Test B pre/postemergence crabgrass; assay type: in vivo, Digitaria sanguinalis
How it was run: as §2

rice = test: Test B flood test rice; assay type: in vivo, Oryza sativa; conditions: Pre-emergence
How it was run: as §1

bedstraw = test: Test B pre/postemergence bedstraw; assay type: in vivo, Galium aparine; conditions: Preemergence; for Bedstraw plant response rating: scale of 0 to 10 where 0 is no effect and 10 is complete control
How it was run: as §2

wild oat = test: Test B pre/postemergence wild oat; assay type: in vivo, Avena fatua
How it was run: as §2

purple nutsedge = test: Test B pre/postemergence purple nutsedge; assay type: in vivo, Cyperus rotundus
How it was run: as §2

surinam grass = test: Test B pre/postemergence surinam grass; assay type: in vivo, Brachiaria decumbens
How it was run: as §2

corn = test: Test B pre/postemergence corn; assay type: in vivo, Zea mays
How it was run: as §2

giant foxtail = test: Test B pre/postemergence giant foxtail; assay type: in vivo, Setaria faberii
How it was run: as §2

smallflower flatsedge = test: Test B flood test smallflower flatsedge; assay type: in vivo, Cyperus difformis; conditions: Pre-emergence
How it was run: as §1

blackgrass = test: Test B pre/postemergence blackgrass; assay type: in vivo, Alopecurus myosuroides
How it was run: as §2

rape = test: Test B pre/postemergence rape; assay type: in vivo, Brassica napus
How it was run: as §2

[1] = Rate 1000 g/ha, scale 0 to 10 (0 no effect, 10 complete control)
[2] = Rate 125 g/ha, flood test species, scale 0 to 10 where 0 is no effect and 10 is complete control
[3] = Rate 250 g/ha, flood-test species, scale 0 to 10, 0 is no effect, 10 is complete control
[4] = Rate 500 g/ha, flood test species, scale 0 to 10 (0 no effect, 10 complete control)
[5] = Postemergence, Rate 125 g/ha, scale 0 to 10, 0 is no effect, 10 is complete control
[6] = Postemergence, Rate 250 g/ha, scale 0 to 10, 0 is no effect, 10 is complete control
[7] = Postemergence, Rate 1000 g/ha, scale 0 to 10 (0 no effect, 10 complete control)
[8] = Preemergence, Rate 250 g/ha, scale of 0 to 10 where 0 is no effect and 10 is complete control
[9] = Preemergence, Rate 500 g/ha, scale of 0 to 10 where 0 is no effect and 10 is complete control
[10] = Rate 500 g/ha, Postemergence, scale 0 to 10, 0 no effect, 10 complete control
[11] = Rate 1000 g/ha, Preemergence, scale 0 to 10 (0 no effect, 10 complete control)

CCOC(=O)C(C)N(C(=O)n1oc(=O)n(C)c1=O)c1ccc(F)cc1 (centres unmarked) [Compound 365]
Ducksalad plant response rating (duck salad; [1]): 0 | Ducksalad plant response rating (duck salad; [2]): 0 | Ducksalad plant response rating (duck salad; [3]): 0 | Ducksalad plant response rating (duck salad; [4]): 0 | Barnyardgrass plant response rating (bamyardgrass; [1]): 0 | Barnyardgrass plant response rating (bamyardgrass; [2]): 0 | Barnyardgrass plant response rating (bamyardgrass; [3]): 0 | Barnyardgrass plant response rating (bamyardgrass; [4]): 0 | Plant response rating, Sugarbeets (sugar beet; [5]): 0 | Plant response rating, Sugarbeets (sugar beet; [6]): 0 | Sugarbeets plant response rating (sugar beet; [7]): 0 | Sugarbeets plant response rating (0 to 10 scale) (sugar beet; Preemergence, Rate 125 g/ha): 0 | Sugarbeets plant response rating (sugar beet; [8]): 0 | Sugarbeets plant response rating (sugar beet; [9]): 0 | Plant response rating, Sugarbeets (sugar beet; [10]): 0 | Plant response rating, Sugarbeets (sugar beet; [11]): 0 | Plant response rating, Velvetleaf (velvetleaf; [5]): 0 | Plant response rating, Velvetleaf (velvetleaf; [6]): 0 | Velvetleaf plant response rating (velvetleaf; [7]): 0 | Velvetleaf plant response rating (0 to 10 scale) (velvetleaf; Preemergence, Rate 125 g/ha): 0 | Velvetleaf plant response rating (velvetleaf; [8]): 0 | Velvetleaf plant response rating (velvetleaf; [9]): 0 | Plant response rating, Velvetleaf (velvetleaf; [10]): 0 | Plant response rating, Velvetleaf (velvetleaf; [11]): 0 | Plant response rating, Wheat (wheat; [5]): 0 | Plant response rating, Wheat (wheat; [6]): 0 | Wheat plant response rating (wheat; [7]): 0 | Wheat plant response rating (0 to 10 scale) (wheat; Preemergence, Rate 125 g/ha): 0 | Wheat plant response rating (wheat; [8]): 0 | Wheat plant response rating (wheat; [9]): 0 | Plant response rating, Wheat (wheat; [10]): 0 | Plant response rating, Wheat (wheat; [11]): 0 | Plant response rating, Crabgrass (crabgrass; [5]): 0 | Plant response rating, Crabgrass (crabgrass; [6]): 0 | Crabgrass plant response rating (crabgrass; [7]): 0 | Crabgrass plant response rating (0 to 10 scale) (crabgrass; Preemergence, Rate 125 g/ha): 0 | Crabgrass plant response rating (crabgrass; [8]): 0 | Crabgrass plant response rating (crabgrass; [9]): 4 | Plant response rating, Crabgrass (crabgrass; [10]): 0 | Plant response rating, Crabgrass (crabgrass; [11]): 8 | Rice plant response rating (rice; [1]): 0 | Rice plant response rating (rice; [2]): 0 | Rice plant response rating (rice; [3]): 0 | Rice plant response rating (rice; [4]): 0 | Bedstraw plant response rating (0 to 10 scale) (bedstraw; Rate 125 g/ha): 0 | Bedstraw plant response rating (bedstraw; Rate 250 g/ha): 0 | Bedstraw plant response rating (bedstraw; Rate 500 g/ha): 0 | Plant response rating, Bedstraw (bedstraw; [1]): 0 | Plant response rating, Wild oats (wild oat; [5]): 0 | Plant response rating, Wild oats (wild oat; [6]): 0 | Wild oats plant response rating (wild oat; [7]): 0 | Wild oats plant response rating (0 to 10 scale) (wild oat; Preemergence, Rate 125 g/ha): 0 | Wild oats plant response rating (wild oat; [8]): 0 | Wild oats plant response rating (wild oat; [9]): 0 | Plant response rating, Wild oats (wild oat; [10]): 0 | Plant response rating, Wild oats (wild oat; [11]): 0 | Plant response rating, Nutsedge (purple nutsedge; [5]): 0 | Plant response rating, Nutsedge (purple nutsedge; [6]): 0 | Nutsedge plant response rating (purple nutsedge; [7]): 0 | Nutsedge plant response rating (purple nutsedge; [8]): 0 | Nutsedge plant response rating (purple nutsedge; [9]): 0 | Plant response rating, Nutsedge (purple nutsedge; [10]): 0 | Plant response rating, Nutsedge (purple nutsedge; [11]): 0 | Plant response rating, B. signalgrass (surinam grass; [5]): 0 | Plant response rating, B. signalgrass (surinam grass; [6]): 0 | B. signalgrass plant response rating (surinam grass; [7]): 0 | B. signalgrass plant response rating (0 to 10 scale, 0 is no effect, 10 is complete control) (surinam grass; Preemergence, Rate 125 g/ha): 0 | B. signalgrass plant response rating (surinam grass; [8]): 0 | B. signalgrass plant response rating (surinam grass; [9]): 0 | Plant response rating, B. signalgrass (surinam grass; [10]): 0 | Plant response rating, B. signalgrass (surinam grass; [11]): 0 | Plant response rating, Corn (corn; [5]): 0 | Plant response rating, Corn (corn; [6]): 0 | Corn plant response rating (corn; [7]): 0 | Corn plant response rating (0 to 10 scale) (corn; Preemergence, Rate 125 g/ha): 0 | Corn plant response rating (corn; [8]): 0 | Corn plant response rating (corn; [9]): 0 | Plant response rating, Corn (corn; [10]): 0 | Plant response rating, Corn (corn; [11]): 0 | Plant response rating, Giant foxtail (giant foxtail; [5]): 0 | Plant response rating, Giant foxtail (giant foxtail; [6]): 0 | Giant foxtail plant response rating (giant foxtail; [7]): 0 | Giant foxtail plant response rating (0 to 10 scale) (giant foxtail; Preemergence, Rate 125 g/ha): 0 | Giant foxtail plant response rating (giant foxtail; [8]): 0 | Giant foxtail plant response rating (giant foxtail; [9]): 3 | Plant response rating, Giant foxtail (giant foxtail; [10]): 0 | Plant response rating, Giant foxtail (giant foxtail; [11]): 9 | S. Flatsedge plant response rating (smallflower flatsedge; [1]): 0 | S. Flatsedge plant response rating (smallflower flatsedge; [2]): 0 | S. Flatsedge plant response rating (smallflower flatsedge; [3]): 0 | S. Flatsedge plant response rating (smallflower flatsedge; [4]): 0 | Plant response rating, Blackgrass (blackgrass; [5]): 0 | Plant response rating, Blackgrass (blackgrass; [6]): 0 | Blackgrass plant response rating (blackgrass; [7]): 0 | Blackgrass plant response rating (0 to 10 scale) (blackgrass; Preemergence, Rate 125 g/ha): 0 | Blackgrass plant response rating (blackgrass; [8]): 0 | Blackgrass plant response rating (blackgrass; [9]): 0 | Plant response rating, Blackgrass (blackgrass; [10]): 0 | Plant response rating, Blackgrass (blackgrass; [11]): 0 | Plant response rating, Rape (rape; [5]): 0 | Plant response rating, Rape (rape; [6]): 0 | Rape plant response rating (rape; [7]): 0 | Rape plant response rating (0 to 10 scale) (rape; Preemergence, Rate 125 g/ha): 0 | Rape plant response rating (rape; [8]): 0 | Rape plant response rating (rape; [9]): 0 | Plant response rating, Rape (rape; [10]): 0 | Plant response rating, Rape (rape; [11]): 0
